# Reference: patent US9873702B2, “Heterocyclic compounds as biogenic amine transport modulators” (Southern Research Institute, priority 2014, dated 2018)
# Like-named read-outs stand apart in the source and are kept apart here.
# Key:
# [1] = target: T1, serotonin transporter (SERT) (Rattus norvegicus, UniProt P31652); experiment: Serotonin reuptake ([^3H]serotonin uptake) inhibition in rat brain synaptosomes; type: biochemical
# T1 construct: Freshly removed whole brain minus cerebellum and caudate was homogenized; from tissue; host or cells: rat whole brain minus cerebellum and caudate, synaptosomes
# T1 sequence (P31652 whole entry): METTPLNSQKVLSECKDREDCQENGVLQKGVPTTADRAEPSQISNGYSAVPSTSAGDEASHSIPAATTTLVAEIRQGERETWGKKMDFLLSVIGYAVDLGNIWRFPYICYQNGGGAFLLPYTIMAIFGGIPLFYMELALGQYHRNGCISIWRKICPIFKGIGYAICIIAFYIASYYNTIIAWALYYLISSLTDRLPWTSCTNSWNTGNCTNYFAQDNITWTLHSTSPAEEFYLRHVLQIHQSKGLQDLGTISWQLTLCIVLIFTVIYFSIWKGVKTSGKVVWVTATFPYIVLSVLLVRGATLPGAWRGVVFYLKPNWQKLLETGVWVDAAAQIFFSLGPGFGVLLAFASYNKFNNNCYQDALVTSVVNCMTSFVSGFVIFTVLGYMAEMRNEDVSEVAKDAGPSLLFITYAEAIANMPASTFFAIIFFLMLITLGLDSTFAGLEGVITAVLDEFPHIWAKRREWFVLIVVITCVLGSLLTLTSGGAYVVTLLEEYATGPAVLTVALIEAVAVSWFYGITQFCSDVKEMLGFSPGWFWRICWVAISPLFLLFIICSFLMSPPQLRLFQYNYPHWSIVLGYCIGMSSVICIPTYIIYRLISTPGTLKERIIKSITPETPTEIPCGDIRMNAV
# [2] = target: T2, DAT (Rattus norvegicus, UniProt P23977); experiment: Dopamine transporter binding, inhibition of [^3H]WIN35428 binding in rat caudate membranes; details: inhibition of [3H]WIN35428 binding; mean ± S.D., n = 3
# T2 construct: from tissue; host or cells: rat caudate membranes
# T2 sequence (P23977 whole entry): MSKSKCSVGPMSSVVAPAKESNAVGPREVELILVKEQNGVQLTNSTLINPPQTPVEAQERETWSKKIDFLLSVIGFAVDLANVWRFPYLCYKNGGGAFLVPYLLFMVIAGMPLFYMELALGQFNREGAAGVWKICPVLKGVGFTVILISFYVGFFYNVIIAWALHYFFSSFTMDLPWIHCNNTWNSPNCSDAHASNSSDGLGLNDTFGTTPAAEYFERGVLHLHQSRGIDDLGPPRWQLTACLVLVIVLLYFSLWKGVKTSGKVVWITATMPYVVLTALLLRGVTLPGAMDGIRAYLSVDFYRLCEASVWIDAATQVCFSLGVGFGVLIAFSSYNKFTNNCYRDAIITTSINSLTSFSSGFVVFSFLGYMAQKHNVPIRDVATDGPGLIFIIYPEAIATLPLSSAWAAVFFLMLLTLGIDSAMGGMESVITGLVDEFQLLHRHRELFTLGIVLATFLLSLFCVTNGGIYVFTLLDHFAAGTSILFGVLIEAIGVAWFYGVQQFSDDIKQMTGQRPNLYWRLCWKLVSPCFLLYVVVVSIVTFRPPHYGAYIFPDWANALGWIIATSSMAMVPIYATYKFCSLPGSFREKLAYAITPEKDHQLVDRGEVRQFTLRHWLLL
# Summary of the method: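 Rat caudate membranes in 50 mM sodium phosphate pH 7.4 with protease inhibitors, EDTA/EGTA and BSA were incubated with 1 nM [^3H]WIN35428 and test drug for 2 hours at 25° C. Filtration-retained tritium measured; three pooled experiments fit to dose-response to give Emax and EC50.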
# [3] = target: T3, dopamine transporter (DAT) (Rattus norvegicus, UniProt P23977); experiment: Dopamine reuptake ([^3H]dopamine uptake) inhibition in rat brain synaptosomes
# T3 sequence (P23977 whole entry): as above
# [4] = target: norepinephrine transporter (NET) (Rattus norvegicus, UniProt Q9WTR4); experiment: Norepinephrine reuptake ([^3H]norepinephrine uptake) inhibition in rat brain synaptosomes
# Description: Freshly removed whole brain minus cerebellum and caudate was homogenized in 10% ice-cold sucrose with 12 strokes of a hand-held Potter-Elvehjem homogenizer followed by centrifugation at 1000×g for 10 minutes. The supernatants were saved on ice and used immediately. Transporter activity at NET was assessed using 10 nM [^3H]norepinephrine. […] Uptake inhibition assays were conducted at 37° C. and were initiated by adding 100 μL of tissue to 900 μL assay buffer containing test drug and [^3H]norepinephrine. Test drugs were diluted in assay buffer containing 1 mg/mL bovine serum albumin. Nonspecific uptake was measured by incubating in the presence of 10 μM indatraline. The reactions were stopped after 10 minutes by rapid vacuum filtration with a cell harvester (BRANDEL) over GF/B filters (Whatman) presoaked in wash buffer maintained at 25° C. (10 mM Tris-HCl, pH 7.4/150 mM NaCl). Filters were rinsed with 6 mL wash buffer and retained tritium was quantified by a MicroBeta liquid scintillation counter (PerkinElmer) after overnight extraction in 0.6 mL of liquid scintillation cocktail (Cytoscint, ICN). The data from three experiments were pooled and fit to a dose-response curve equation (using Kaleidagraph), to yield an Emax and EC50 value.
# The data from three experiments were pooled and fit to a dose-response curve equation (using KaleidaGraph; Synergy Software, Reading, Pa.) to yield an Emax and IC50 value.
# [5] = target: T3, dopamine transporter (DAT); experiment: Dopamine transporter-mediated [^3H]MPP^+ release, shift of D-amphetamine-induced release, rat caudate synaptosomes; type: biochemical; design: Freshly removed caudate was homogenized in 10% ice-cold sucrose; from tissue; host or cells: rat caudate synaptosomes
# [6] = target: T3, dopamine transporter (DAT); experiment: Time course of [^3H]DA uptake/accumulation; type: biochemical; design: Freshly removed caudate was homogenized in 10% ice-cold sucrose; from tissue; host or cells: rat caudate synaptosomes
# [7] = target: T3, dopamine transporter (DAT); experiment: d-Amphetamine-induced DAT-mediated [^3H]DA release; type: biochemical; design: Freshly removed caudate was homogenized in 10% ice-cold sucrose; from tissue; host or cells: rat caudate synaptosomes; details: Apparent Kc = [Blocker]/((EC50-2/EC50-1) − 1), negative when shifted EC50 is less than control
smiles,measurement,setting,value
"c1ccc(C(CNc2nc(-c3ccc4nccn4c3)nc3ccccc23)c2ccccc2)cc1 [compound 55, N-(2,2-Diphenylethyl)-2-(Imidazo[1,2-a]Pyridin-6-yl)Quinazolin-4-Amine]",Emax,"[1]; mean ± S.D., n = 3, read-out: SERT Uptake Emax",52 ± 2%
same,IC50,"[1]; mean ± S.D., n = 3, read-out: SERT Uptake IC50",23 ± 5 nM
same,"efficacy of SERT uptake inhibition, in words",[1]; partial versus full inhibition,partial inhibitor
same,DAT Binding εmax,[2],Inactive
same,IC50,"[3]; IC50 for DAT Uptake Inhibition, rounded value as listed in Table 10",2 nM
same,IC50,"[3]; IC50 for inhibition of DAT uptake, [^3H]DA uptake, text of b784",2.3 ± 0.4 nM
same,"efficacy of [^3H]DA (DAT) uptake inhibition, in words",[3]; partial versus full inhibition,partial inhibitor
same,Emax,[3]; read-out: DAT Uptake Emax,68 ± 2%
same,Emax,[3]; read-out: Emax for DAT Uptake Inhibition,68%
same,Emax for DAT Uptake Inhibition,[3]; value as listed in Table 10,68%
same,NET Uptake Emax,"[4]; mean ± S.D., n = 3",72 ± 4%
same,"efficacy of NET uptake inhibition, in words",[4]; partial versus full inhibition,partial inhibitor
same,NE Uptake Emax (% I ± SD),"[4]; rat brain synaptosomes, 10 nM [^3H]norepinephrine, maximal inhibition from dose-response fit",72 ± 4 % I
same,IC50,"[4]; read-out: NE Uptake EC50 (nM ± SD), rat brain synaptosomes, 10 nM [^3H]norepinephrine, 10 min, 37° C.",52 ± 15 nM
same,IC50,"[4]; read-out: NET Uptake IC50, mean ± S.D., n = 3",52 ± 15 nM
same,D-Amphetamine Emax (% ± SD),[5]; Emax of D-amphetamine for [^3H]MPP^+ release in presence of 50 nM test compound,103 ± 3%
same,Apparent Kc,"[5]; [3H]MPP+ release, Apparent Kc = [Blocker]/((EC50-2/EC50-1) − 1), negative when shifted EC50 is less than control",-368 nM
same,"effect on the d-amphetamine Emax value, in words","[5]; d-amphetamine-induced DAT-mediated [^3H]MPP^+ release, blocking concentration ˜25 times IC50 for DAT uptake inhibition",decreased
same,Emax at 0.001 µM,"[6]; [^3H]DA accumulation, 1 nM compound 55, read-out: Inhibition of the Emax value (%)",11%
same,Emax at 0.004 µM,"[6]; [^3H]DA accumulation, 4 nM compound 55, read-out: Inhibition of the Emax value (%)",29%
same,Emax at 0.008 µM,"[6]; [^3H]DA accumulation, 8 nM compound 55, read-out: Inhibition of the Emax value (%)",42%
same,Emax at 0.025 µM,"[6]; [^3H]DA accumulation, 25 nM compound 55, read-out: Inhibition of the Emax value (%)",57%
same,Emax,"[6]; dose-dependent decrease of maximum [^3H]DA accumulation, read-out: Emax of decrease of the Emax of [^3H]DA accumulation",69 ± 1%
same,Emax,"[6]; maximum level of [^3H]DA accumulation, 1 nM compound 55",89 ± 4
same,Emax,"[6]; maximum level of [^3H]DA accumulation, 4 nM compound 55",71 ± 2
same,Emax,"[6]; maximum level of [^3H]DA accumulation, 8 nM compound 55",58 ± 2
same,Emax,"[6]; maximum level of [^3H]DA accumulation, 25 nM compound 55",43 ± 3
same,"effect on the Emax of [^3H]DA accumulation, in words",[6]; time course of [^3H]DA uptake,decreased the Emax in a dose-dependent manner
same,Apparent Kc,[7],-239 nM
